Experimental data from the supplement of paper PMC10132981, “Formate overflow drives toxic folate trapping in MTHFD1 inhibited cancer cells” (Nature Metabolism, 2023).

System: SW620
Assay: cell viability relative to vehicle (resazurin, 96 h); higher = more viable
Description: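 SW620 WT or MTHFD2-/- cells were treated for 96 h with a compound dilution series (log10 M) in RPMI with normal or dialysed FBS. Viability was read by resazurin and is given as % of vehicle.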

Cc1c(N2CCN(C)[C@@H](C)C2)ccc2c3c(c(=O)oc12)CN(C(=O)c1ccc(NS(C)(=O)=O)c(OC(F)(F)F)c1)CC3
Conditions	cell viability [%]
log10 compound concentration (M): -5, supplement / serum: 50μM Hypoxanthine, base medium: RPMI + dialysed FBS	59.7
log10 compound concentration (M): -5, supplement / serum: 50μM Thymidine + 50μM Hypoxanthine, base medium: RPMI + dialysed FBS	79
log10 compound concentration (M): -5, supplement / serum: 50μMThymidine, base medium: RPMI + dialysed FBS	13
log10 compound concentration (M): -5, supplement / serum: No metabolite, base medium: RPMI + dialysed FBS	11
log10 compound concentration (M): -5, supplement / serum: RPMI + Dialyzed FBS + 50μM Hypoxanthine, base medium: RPMI-1640	59.7
log10 compound concentration (M): -5, supplement / serum: RPMI + Dialyzed FBS, base medium: RPMI-1640	11
log10 compound concentration (M): -5, supplement / serum: RPMI + Normal FBS, base medium: RPMI-1640	78.9
log10 compound concentration (M): -5.47712, supplement / serum: 50μM Hypoxanthine, base medium: RPMI + dialysed FBS	73.8
log10 compound concentration (M): -5.47712, supplement / serum: 50μM Thymidine + 50μM Hypoxanthine, base medium: RPMI + dialysed FBS	87.3
log10 compound concentration (M): -5.47712, supplement / serum: 50μMThymidine, base medium: RPMI + dialysed FBS	16.4
log10 compound concentration (M): -5.47712, supplement / serum: No metabolite, base medium: RPMI + dialysed FBS	16.8
log10 compound concentration (M): -5.47712, supplement / serum: RPMI + Dialyzed FBS + 50μM Hypoxanthine, base medium: RPMI-1640	73.8
log10 compound concentration (M): -5.47712, supplement / serum: RPMI + Dialyzed FBS, base medium: RPMI-1640	16.8
log10 compound concentration (M): -5.47712, supplement / serum: RPMI + Normal FBS, base medium: RPMI-1640	59.76
log10 compound concentration (M): -5.95424, supplement / serum: 50μM Hypoxanthine, base medium: RPMI + dialysed FBS	79.2
log10 compound concentration (M): -5.95424, supplement / serum: 50μM Thymidine + 50μM Hypoxanthine, base medium: RPMI + dialysed FBS	82.2
log10 compound concentration (M): -5.95424, supplement / serum: 50μMThymidine, base medium: RPMI + dialysed FBS	37.8
log10 compound concentration (M): -5.95424, supplement / serum: No metabolite, base medium: RPMI + dialysed FBS	37.9
log10 compound concentration (M): -5.95424, supplement / serum: RPMI + Dialyzed FBS + 50μM Hypoxanthine, base medium: RPMI-1640	79.2
log10 compound concentration (M): -5.95424, supplement / serum: RPMI + Dialyzed FBS, base medium: RPMI-1640	37.9
log10 compound concentration (M): -5.95424, supplement / serum: RPMI + Normal FBS, base medium: RPMI-1640	66.4
log10 compound concentration (M): -6.43136, supplement / serum: 50μM Hypoxanthine, base medium: RPMI + dialysed FBS	78.9
log10 compound concentration (M): -6.43136, supplement / serum: 50μM Thymidine + 50μM Hypoxanthine, base medium: RPMI + dialysed FBS	89.1
log10 compound concentration (M): -6.43136, supplement / serum: 50μMThymidine, base medium: RPMI + dialysed FBS	64.5
log10 compound concentration (M): -6.43136, supplement / serum: No metabolite, base medium: RPMI + dialysed FBS	67.9
log10 compound concentration (M): -6.43136, supplement / serum: RPMI + Dialyzed FBS + 50μM Hypoxanthine, base medium: RPMI-1640	78.9
log10 compound concentration (M): -6.43136, supplement / serum: RPMI + Dialyzed FBS, base medium: RPMI-1640	67.9
log10 compound concentration (M): -6.43136, supplement / serum: RPMI + Normal FBS, base medium: RPMI-1640	74.7
log10 compound concentration (M): -6.90849, supplement / serum: 50μM Hypoxanthine, base medium: RPMI + dialysed FBS	85.8
log10 compound concentration (M): -6.90849, supplement / serum: 50μM Thymidine + 50μM Hypoxanthine, base medium: RPMI + dialysed FBS	72.8
log10 compound concentration (M): -6.90849, supplement / serum: 50μMThymidine, base medium: RPMI + dialysed FBS	72.2
log10 compound concentration (M): -6.90849, supplement / serum: No metabolite, base medium: RPMI + dialysed FBS	84.5
log10 compound concentration (M): -6.90849, supplement / serum: RPMI + Dialyzed FBS + 50μM Hypoxanthine, base medium: RPMI-1640	85.8
log10 compound concentration (M): -6.90849, supplement / serum: RPMI + Dialyzed FBS, base medium: RPMI-1640	84.5
log10 compound concentration (M): -6.90849, supplement / serum: RPMI + Normal FBS, base medium: RPMI-1640	76.6
log10 compound concentration (M): -7.38561, supplement / serum: 50μM Hypoxanthine, base medium: RPMI + dialysed FBS	68.9
log10 compound concentration (M): -7.38561, supplement / serum: 50μM Thymidine + 50μM Hypoxanthine, base medium: RPMI + dialysed FBS	79.5
log10 compound concentration (M): -7.38561, supplement / serum: 50μMThymidine, base medium: RPMI + dialysed FBS	65.2
log10 compound concentration (M): -7.38561, supplement / serum: No metabolite, base medium: RPMI + dialysed FBS	66.8
log10 compound concentration (M): -7.38561, supplement / serum: RPMI + Dialyzed FBS + 50μM Hypoxanthine, base medium: RPMI-1640	68.9
log10 compound concentration (M): -7.38561, supplement / serum: RPMI + Dialyzed FBS, base medium: RPMI-1640	66.8
log10 compound concentration (M): -7.38561, supplement / serum: RPMI + Normal FBS, base medium: RPMI-1640	75
log10 compound concentration (M): -7.86273, supplement / serum: 50μM Hypoxanthine, base medium: RPMI + dialysed FBS	83.7
log10 compound concentration (M): -7.86273, supplement / serum: 50μM Thymidine + 50μM Hypoxanthine, base medium: RPMI + dialysed FBS	83.3
log10 compound concentration (M): -7.86273, supplement / serum: 50μMThymidine, base medium: RPMI + dialysed FBS	70.4
log10 compound concentration (M): -7.86273, supplement / serum: No metabolite, base medium: RPMI + dialysed FBS	75.1
log10 compound concentration (M): -7.86273, supplement / serum: RPMI + Dialyzed FBS + 50μM Hypoxanthine, base medium: RPMI-1640	83.7
log10 compound concentration (M): -7.86273, supplement / serum: RPMI + Dialyzed FBS, base medium: RPMI-1640	75.1
log10 compound concentration (M): -7.86273, supplement / serum: RPMI + Normal FBS, base medium: RPMI-1640	73
log10 compound concentration (M): -8.33985, supplement / serum: 50μM Hypoxanthine, base medium: RPMI + dialysed FBS	84.3
log10 compound concentration (M): -8.33985, supplement / serum: 50μM Thymidine + 50μM Hypoxanthine, base medium: RPMI + dialysed FBS	76.1
log10 compound concentration (M): -8.33985, supplement / serum: 50μMThymidine, base medium: RPMI + dialysed FBS	78.4
log10 compound concentration (M): -8.33985, supplement / serum: No metabolite, base medium: RPMI + dialysed FBS	86.2
log10 compound concentration (M): -8.33985, supplement / serum: RPMI + Dialyzed FBS + 50μM Hypoxanthine, base medium: RPMI-1640	84.3
log10 compound concentration (M): -8.33985, supplement / serum: RPMI + Dialyzed FBS, base medium: RPMI-1640	86.2
log10 compound concentration (M): -8.33985, supplement / serum: RPMI + Normal FBS, base medium: RPMI-1640	92
log10 compound concentration (M): -8.81697, supplement / serum: 50μM Hypoxanthine, base medium: RPMI + dialysed FBS	83.9
log10 compound concentration (M): -8.81697, supplement / serum: 50μM Thymidine + 50μM Hypoxanthine, base medium: RPMI + dialysed FBS	69.4
log10 compound concentration (M): -8.81697, supplement / serum: 50μMThymidine, base medium: RPMI + dialysed FBS	77.4
log10 compound concentration (M): -8.81697, supplement / serum: No metabolite, base medium: RPMI + dialysed FBS	70.8
log10 compound concentration (M): -8.81697, supplement / serum: RPMI + Dialyzed FBS + 50μM Hypoxanthine, base medium: RPMI-1640	83.9
log10 compound concentration (M): -8.81697, supplement / serum: RPMI + Dialyzed FBS, base medium: RPMI-1640	70.8
log10 compound concentration (M): -8.81697, supplement / serum: RPMI + Normal FBS, base medium: RPMI-1640	75.5
log10 compound concentration (M): -9.29409, supplement / serum: 50μM Hypoxanthine, base medium: RPMI + dialysed FBS	77.29
log10 compound concentration (M): -9.29409, supplement / serum: 50μM Thymidine + 50μM Hypoxanthine, base medium: RPMI + dialysed FBS	86.3
log10 compound concentration (M): -9.29409, supplement / serum: 50μMThymidine, base medium: RPMI + dialysed FBS	105
log10 compound concentration (M): -9.29409, supplement / serum: No metabolite, base medium: RPMI + dialysed FBS	84.9
log10 compound concentration (M): -9.29409, supplement / serum: RPMI + Dialyzed FBS + 50μM Hypoxanthine, base medium: RPMI-1640	77.29
